Measurements from patent publication US4552868A, “14-Amino steroid derivatives, a process for the preparation thereof and method of use thereof” (Etablissements Nativelle S.A., priority 1982, dated 1985).

Key:
[1] = molecular target: membraneous ATPase; experiment: Inhibition of membraneous ATPase; format: biochemical; conditions: read-out: ED50 (dose causing 50% inhibition of membraneous ATPase)
Excerpt: The results obtained using the derivatives of the invention described in Examples 2, 6 and 7 and ouabain and digoxin are shown in Table 2 below.
In Table 2, the ED50 value is the dose causing 50% inhibition of membraneous ATPase.

[2] = tested on: cardiac contractility; experiment: Toxicity versus increase in cardiac contractility in the anesthetized dog; format: in vivo
Excerpt: Similarly, the toxicity of the derivatives of the invention is reversible, that is, stopping their administration is sufficient to make problems observed using an electrocardiogram disappear.

[3] = tested on: isolated guinea pig auricle; experiment: Positive inotropic activity: increase in force of contraction on the isolated guinea pig auricle; conditions: Cavia porcellus, read-out: Range of contractions in relation to the control values; for activation at 2 µM: 2 × 10^-6 Moles/l; for activation at 6 µM: 6 × 10^-6 Moles/l; for activation at 10 µM: 10^-5 Moles/l; for activation at 1 µM: 10^-6 Moles/l; for activation at 0.2 µM: 2 × 10^-7 Moles/l
Excerpt: Inotropic activity has been verified on the isolated guinea pig auricle under normal experimental conditions, by recording the range of contractions for various doses administered in relation to control values.
Range of contractions in relation to the control values

SMILES	IC50 [1] [nM]	increase in cardiac contractility without any signs of toxicity [2] [%]	signs of toxicity ([2]; at 150% increase in cardiac contractility)	activation at 2 µM [3] [%]	activation at 6 µM [3] [%]	activation at 10 µM [3] [%]	activation at 1 µM [3] [%]	activation at 0.2 µM [3] [%]	increase in cardiac contractility at which toxic signs appear ([2]; same experimental conditions)
C[C@@H]1O[C@@H](O[C@H]2CC[C@@]3(C)[C@H](CC[C@@H]4[C@@H]3CC[C@]3(C)[C@@H](CO)CC[C@]43N)C2)[C@H](O)[C@H](O)[C@H]1O [Example 2, 3-O-(α-L-rhamnopyranosyl) 14β-amino 21-nor 5β-pregnane 3β,20-diol]	0.13								
C[C@H](O)[C@H]1CC[C@]2(N)[C@@H]3CC[C@@H]4C[C@@H](O[C@@H]5O[C@@H](C)[C@H](O)[C@@H](O)[C@H]5O)CC[C@]4(C)[C@H]3CC[C@]12C [Example 6, 3-O-(α-L-rhamnopyranosyl) 14β-amino 5β-pregnane 3β,20α-diol]	0.18	150	without any signs of toxicity	63	143	148	43		
C[C@@H]1O[C@@H](O[C@H]2CC[C@@]3(C)[C@H](CC[C@@H]4[C@@H]3CC[C@]3(C)[C@@H]([C@@H](C)O)CC[C@]43N)C2)[C@H](O)[C@H](O)[C@H]1O [Example 7, 3-O-(α-L-rhamnopyranosyl) 14β-amino 5β-pregnane 3β,20β-diol]	0.07			178	233	206	97	50	
C[C@H]1O[C@@H](O[C@H]2[C@@H](O)C[C@H](O[C@H]3[C@@H](O)C[C@H](O[C@H]4CC[C@@]5(C)[C@H](CC[C@@H]6[C@@H]5C[C@@H](O)[C@]5(C)[C@@H](C7=CC(=O)OC7)CC[C@]65O)C4)O[C@@H]3C)O[C@@H]2C)C[C@H](O)[C@@H]1O [digoxin, reference compound]	5.3			114	128	128	100	38	approximately 50%
C[C@@H]1O[C@@H](O[C@H]2C[C@@H](O)[C@]3(CO)[C@H]4[C@H](O)C[C@]5(C)[C@@H](C6=CC(=O)OC6)CC[C@]5(O)[C@@H]4CC[C@]3(O)C2)[C@H](O)[C@H](O)[C@H]1O [ouabain, reference compound]	3.6								
